Experimental data as given in ChEMBL document CHEMBL5620374, “Synthesis and bioevaluation of novel stilbene-based derivatives as tubulin/HDAC dual-target inhibitors with potent antitumor activities in vitro and in vivo” (Eur J Med Chem, 2023).
pIC50: −log10 of the molar value. Active and inactive are the calls of the source. The rule behind the calls is not given here.

Tests used:
Histone deacetylase 3 = Histone deacetylase 3 (Homo sapiens, UniProt O15379); experiment: Inhibition of HDAC3 in human K562 cells assessed as increase in Acetyl-histone H3 level at 0.01 to 1 uM incubated for 24 hrs by Western blot analysis; assay type: cell-based; settings: dose 0.01-1 µM
H22 = experiment: Antitumor activity against mouse H22 cells allografted in ICR mouse assessed as tumor growth inhibition at 20 mg/kg, iv qd for 17 days consecutively relative to control; assay type: functional; settings: time 17 day, read-out: TGI
K562 = experiment: Induction of apoptosis in human K562 cells assessed as increase in Bad level incubated for 24 hrs by Western blot analysis; assay type: functional, cell-based; settings: dose 2-8 nM
A549 = experiment: cells; settings: Homo sapiens, A549, 72 h
Description: Antiproliferative activity against human A549 cells incubated for 72 hrs by MTT assay

Histone deacetylase 3, sequence (O15379 whole entry): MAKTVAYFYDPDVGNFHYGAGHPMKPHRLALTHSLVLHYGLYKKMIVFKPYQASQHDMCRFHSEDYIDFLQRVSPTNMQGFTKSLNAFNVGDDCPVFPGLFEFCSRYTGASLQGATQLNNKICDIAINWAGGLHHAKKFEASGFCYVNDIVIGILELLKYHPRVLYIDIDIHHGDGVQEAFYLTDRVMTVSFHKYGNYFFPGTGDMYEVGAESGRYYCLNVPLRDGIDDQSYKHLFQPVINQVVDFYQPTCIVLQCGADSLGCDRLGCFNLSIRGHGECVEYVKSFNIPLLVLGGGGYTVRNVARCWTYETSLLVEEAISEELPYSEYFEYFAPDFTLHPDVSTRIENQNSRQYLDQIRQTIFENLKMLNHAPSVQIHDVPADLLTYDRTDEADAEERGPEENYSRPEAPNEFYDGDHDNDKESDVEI

In the case of `C=C(c1ccc(OC)c(OC(F)C(=O)NO)c1)c1cc(C)nc2ccccc12` (centres undefined), the inhibition (Histone deacetylase 3) was “Active”, the inhibition in vivo at 20 mg/kg (H22) was 73.1% and the Activity (K562) was “Dose-Dependent Effect”. It also gave a pIC50 (A549) of 7.77.
